Results published in article PMC12374823, “A Small Molecule Selectively Targets N-Myc to Suppress Neuroblastoma Cancer Progression” (International Journal of Biological Sciences, 2025).

Tests used:
[1] = target: T1, c-Myc (Homo sapiens, UniProt P01106); assay: microscale thermophoresis (MST) with labeled recombinant c-Myc; format: binding
T1 construct: c-Myc^1-439

[2] = target: T2, N-Myc (Homo sapiens, UniProt P04198); assay: microscale thermophoresis (MST) with labeled purified N-Myc; supported by CETSA in cells; format: binding
T2 construct: gene MYCN; N-Myc^1-464
T2 sequence (P04198 1-464): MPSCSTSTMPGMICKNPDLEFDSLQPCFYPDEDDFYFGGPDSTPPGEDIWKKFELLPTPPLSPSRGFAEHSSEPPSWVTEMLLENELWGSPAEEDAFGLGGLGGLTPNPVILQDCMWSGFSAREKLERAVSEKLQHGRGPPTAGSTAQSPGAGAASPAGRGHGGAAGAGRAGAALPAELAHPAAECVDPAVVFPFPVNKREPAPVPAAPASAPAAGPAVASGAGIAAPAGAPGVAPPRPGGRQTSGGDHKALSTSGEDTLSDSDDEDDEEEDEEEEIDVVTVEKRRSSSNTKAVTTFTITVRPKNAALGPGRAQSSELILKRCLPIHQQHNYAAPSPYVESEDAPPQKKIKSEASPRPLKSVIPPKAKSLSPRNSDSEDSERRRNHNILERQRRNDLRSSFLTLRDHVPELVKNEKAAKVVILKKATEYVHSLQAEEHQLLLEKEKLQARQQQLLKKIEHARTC

T1 sequence (P01106 16-454): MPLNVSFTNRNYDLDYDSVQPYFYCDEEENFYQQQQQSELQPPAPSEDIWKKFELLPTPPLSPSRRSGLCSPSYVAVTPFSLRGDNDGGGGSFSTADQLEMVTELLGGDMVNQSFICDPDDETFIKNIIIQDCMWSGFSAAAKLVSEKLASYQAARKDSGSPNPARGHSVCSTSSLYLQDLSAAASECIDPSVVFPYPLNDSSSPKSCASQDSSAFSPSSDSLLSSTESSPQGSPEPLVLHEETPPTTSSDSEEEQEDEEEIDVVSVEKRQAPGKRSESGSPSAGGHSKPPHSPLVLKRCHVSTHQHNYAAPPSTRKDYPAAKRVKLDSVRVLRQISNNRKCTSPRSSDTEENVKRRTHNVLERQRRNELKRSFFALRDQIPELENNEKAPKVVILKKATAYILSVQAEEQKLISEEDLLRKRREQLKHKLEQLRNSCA

Kd [1]: 8.48 ± 2.61 µM
Kd [2]: 1.47 ± 0.52 µM
SMILES: COc1ccc(-n2nc3ccc(NC(=O)CBr)cc3n2)cc1 [N78]
